Measured values: article PMC10175918 (Communications Biology, 2023)
Like-named read-outs stand apart in the source and are kept apart here.

How the values were obtained:
Assay in all cases: TGFα-shedding assay-based GPCR screening with chimeric Gα subunit proteins
Format in all cases: cell-based
348 GPCRs [1] = target: T1, 348 GPCRs (Homo sapiens, UniProt Q99527); conditions: 10µM, Favipiravir 100μM
T1 construct: expressed in transfected cells; host or cells: HEK293A

348 GPCRs [2] = target: T2, 348 GPCRs (Homo sapiens, UniProt Q9UJ42); conditions: 10µM, Favipiravir 100μM
T2 construct: expressed in transfected cells; host or cells: HEK293A

348 GPCRs [3] = target: T3, 348 GPCRs (Homo sapiens, UniProt O95838); conditions: 10µM, Favipiravir 100μM
T3 construct: expressed in transfected cells; host or cells: HEK293A
T3 sequence (O95838 1-553): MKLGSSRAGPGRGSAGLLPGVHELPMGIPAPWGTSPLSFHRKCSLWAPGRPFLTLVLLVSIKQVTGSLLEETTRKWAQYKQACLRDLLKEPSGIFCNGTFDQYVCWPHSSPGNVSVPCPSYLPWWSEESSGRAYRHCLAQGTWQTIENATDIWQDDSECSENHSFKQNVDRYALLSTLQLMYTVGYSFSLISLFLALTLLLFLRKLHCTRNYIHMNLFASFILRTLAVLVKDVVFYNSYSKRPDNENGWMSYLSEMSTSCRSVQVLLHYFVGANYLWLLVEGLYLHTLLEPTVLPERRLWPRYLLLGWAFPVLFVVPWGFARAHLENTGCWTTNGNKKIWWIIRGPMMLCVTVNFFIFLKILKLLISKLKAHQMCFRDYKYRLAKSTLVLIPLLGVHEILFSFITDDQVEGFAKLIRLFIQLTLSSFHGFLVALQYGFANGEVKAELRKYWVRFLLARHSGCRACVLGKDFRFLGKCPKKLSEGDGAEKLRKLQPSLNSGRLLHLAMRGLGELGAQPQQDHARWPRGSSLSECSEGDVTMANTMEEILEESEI

348 GPCRs [4] = target: T4, 348 GPCRs (Homo sapiens, UniProt P43088); conditions: 10µM, Favipiravir 100μM
T4 construct: expressed in transfected cells; host or cells: HEK293A

348 GPCRs [5] = target: T5, 348 GPCRs (Homo sapiens, UniProt P49685); conditions: 10µM, Favipiravir 100μM
T5 sequence (P49685 1-360): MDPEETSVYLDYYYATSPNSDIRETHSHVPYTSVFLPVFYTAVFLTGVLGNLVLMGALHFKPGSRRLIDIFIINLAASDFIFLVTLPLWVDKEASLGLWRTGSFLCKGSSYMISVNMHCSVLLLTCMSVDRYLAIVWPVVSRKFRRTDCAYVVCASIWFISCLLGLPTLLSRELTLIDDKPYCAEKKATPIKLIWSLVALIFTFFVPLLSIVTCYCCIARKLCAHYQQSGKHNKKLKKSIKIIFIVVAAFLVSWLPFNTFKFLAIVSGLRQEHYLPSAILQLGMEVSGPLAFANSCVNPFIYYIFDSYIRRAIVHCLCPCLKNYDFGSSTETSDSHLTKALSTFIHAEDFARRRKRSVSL

348 GPCRs [6] = target: T6, 348 GPCRs (Homo sapiens, UniProt P46091)
T6 construct: expressed in transfected cells; host or cells: HEK293A
T6 sequence (P46091 1-355): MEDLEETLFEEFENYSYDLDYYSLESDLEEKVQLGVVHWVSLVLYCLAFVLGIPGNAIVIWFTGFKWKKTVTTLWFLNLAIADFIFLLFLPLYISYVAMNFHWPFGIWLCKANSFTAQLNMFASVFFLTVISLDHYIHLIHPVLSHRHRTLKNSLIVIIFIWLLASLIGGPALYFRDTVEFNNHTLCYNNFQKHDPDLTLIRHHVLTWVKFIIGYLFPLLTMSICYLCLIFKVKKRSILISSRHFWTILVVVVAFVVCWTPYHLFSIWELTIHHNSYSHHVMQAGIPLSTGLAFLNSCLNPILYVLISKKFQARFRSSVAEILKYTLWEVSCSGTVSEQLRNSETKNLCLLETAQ

348 GPCRs [7] = target: T7, 348 GPCRs (Homo sapiens, UniProt Q96P65); conditions: 10µM, Favipiravir 100μM
T7 construct: expressed in transfected cells; host or cells: HEK293A
T7 sequence (Q96P65 1-431): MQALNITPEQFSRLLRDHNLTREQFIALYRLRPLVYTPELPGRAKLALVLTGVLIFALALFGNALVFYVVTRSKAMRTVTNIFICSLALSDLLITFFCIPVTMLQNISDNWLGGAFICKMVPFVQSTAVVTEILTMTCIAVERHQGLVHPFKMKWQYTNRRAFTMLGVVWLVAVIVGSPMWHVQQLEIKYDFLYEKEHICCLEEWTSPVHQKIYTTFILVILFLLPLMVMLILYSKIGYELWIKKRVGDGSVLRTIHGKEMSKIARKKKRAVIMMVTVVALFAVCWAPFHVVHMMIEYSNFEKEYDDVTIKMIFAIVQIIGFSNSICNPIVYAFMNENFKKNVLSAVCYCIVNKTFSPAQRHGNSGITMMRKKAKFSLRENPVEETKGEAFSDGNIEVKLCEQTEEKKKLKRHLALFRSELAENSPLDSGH

348 GPCRs [8] = target: T8, 348 GPCRs (Homo sapiens, UniProt Q15760); conditions: 10µM, Favipiravir 100μM
T8 construct: expressed in transfected cells; host or cells: HEK293A

348 GPCRs [9] = target: T9, 348 GPCRs (Homo sapiens, UniProt O95977); conditions: 10µM, Favipiravir 100μM
T9 sequence (O95977 1-384): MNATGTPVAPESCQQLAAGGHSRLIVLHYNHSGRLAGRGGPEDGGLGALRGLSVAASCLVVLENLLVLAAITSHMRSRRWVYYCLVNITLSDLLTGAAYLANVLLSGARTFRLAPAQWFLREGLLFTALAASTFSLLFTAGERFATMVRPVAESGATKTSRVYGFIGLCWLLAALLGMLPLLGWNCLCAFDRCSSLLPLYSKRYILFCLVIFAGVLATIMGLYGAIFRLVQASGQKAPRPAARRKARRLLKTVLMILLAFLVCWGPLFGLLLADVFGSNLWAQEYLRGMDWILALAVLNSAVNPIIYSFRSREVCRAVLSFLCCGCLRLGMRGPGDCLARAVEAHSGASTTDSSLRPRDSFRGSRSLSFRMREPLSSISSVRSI

[10] = GPER (G protein-coupled estrogen receptor 1), read-out: % GPCR activation compared to TPA
[11] = GPR160 (G Protein-Coupled Receptor 160), read-out: % GPCR activation compared to TPA
[12] = GLP2R (glucagon like peptide 2 receptor), read-out: % GPCR activation compared to TPA
[13] = FP (prostaglandin F receptor), read-out: % GPCR activation compared to TPA
[14] = GPR15 (G protein-coupled receptor 15), read-out: % GPCR activation compared to TPA
[15] = GPCR GPR1 (G protein-coupled receptor 1), read-out: % GPCR activation compared to TPA
[16] = QRFP (pyroglutamylated RFamide peptide receptor), read-out: % GPCR activation compared to TPA
[17] = GPR19 (G Protein-Coupled Receptor 19), read-out: % GPCR activation compared to TPA
[18] = S1PR4 (sphingosine-1-phosphate receptor 4), read-out: % GPCR activation compared to TPA
[19] = read-out: % GPCR activation compared to TPA, GPER (G protein-coupled estrogen receptor 1)
[20] = read-out: % GPCR activation compared to TPA, GPR160 (G Protein-Coupled Receptor 160)
[21] = read-out: % GPCR activation compared to TPA, GLP2R (glucagon like peptide 2 receptor)
[22] = read-out: % GPCR activation compared to TPA, FP (prostaglandin F receptor)
[23] = read-out: % GPCR activation compared to TPA, GPR15 (G protein-coupled receptor 15)
[24] = read-out: % GPCR activation compared to TPA, GPCR GPR1 (G protein-coupled receptor 1)
[25] = read-out: % GPCR activation compared to TPA, QRFP (pyroglutamylated RFamide peptide receptor)
[26] = read-out: % GPCR activation compared to TPA, GPR19 (G Protein-Coupled Receptor 19)
[27] = read-out: % GPCR activation compared to TPA, S1PR4 (sphingosine-1-phosphate receptor 4)

T4 sequence (P43088 whole entry): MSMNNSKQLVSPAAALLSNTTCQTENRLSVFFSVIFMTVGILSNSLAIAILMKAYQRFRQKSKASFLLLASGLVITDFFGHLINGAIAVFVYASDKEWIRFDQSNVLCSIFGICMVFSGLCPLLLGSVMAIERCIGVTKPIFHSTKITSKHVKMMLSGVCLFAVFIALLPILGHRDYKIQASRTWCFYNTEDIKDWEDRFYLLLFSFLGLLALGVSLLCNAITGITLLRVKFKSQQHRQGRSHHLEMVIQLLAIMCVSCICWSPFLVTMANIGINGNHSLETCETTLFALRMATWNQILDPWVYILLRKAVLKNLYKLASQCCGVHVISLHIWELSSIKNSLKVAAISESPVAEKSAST
T1 sequence (Q99527 whole entry): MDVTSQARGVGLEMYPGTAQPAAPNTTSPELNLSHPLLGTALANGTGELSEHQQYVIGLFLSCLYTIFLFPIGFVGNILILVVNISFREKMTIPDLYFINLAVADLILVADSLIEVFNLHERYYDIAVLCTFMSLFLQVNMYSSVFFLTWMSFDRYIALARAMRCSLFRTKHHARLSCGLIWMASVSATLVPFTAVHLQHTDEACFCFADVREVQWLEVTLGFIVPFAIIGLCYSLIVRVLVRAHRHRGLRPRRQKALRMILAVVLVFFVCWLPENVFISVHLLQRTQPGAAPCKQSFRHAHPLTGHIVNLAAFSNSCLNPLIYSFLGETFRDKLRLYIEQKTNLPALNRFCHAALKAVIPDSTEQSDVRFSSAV
T8 sequence (Q15760 whole entry): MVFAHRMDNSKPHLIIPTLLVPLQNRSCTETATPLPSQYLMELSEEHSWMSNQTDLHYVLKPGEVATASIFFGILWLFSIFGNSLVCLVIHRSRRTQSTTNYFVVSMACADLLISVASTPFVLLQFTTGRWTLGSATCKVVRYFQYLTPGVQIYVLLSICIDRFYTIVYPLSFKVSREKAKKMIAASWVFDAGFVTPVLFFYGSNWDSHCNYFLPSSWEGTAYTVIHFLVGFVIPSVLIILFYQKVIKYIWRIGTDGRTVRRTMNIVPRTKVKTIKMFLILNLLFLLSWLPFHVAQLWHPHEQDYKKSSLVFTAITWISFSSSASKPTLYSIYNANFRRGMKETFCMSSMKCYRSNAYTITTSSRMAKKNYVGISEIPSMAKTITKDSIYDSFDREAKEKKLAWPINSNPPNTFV
T2 sequence (Q9UJ42 whole entry): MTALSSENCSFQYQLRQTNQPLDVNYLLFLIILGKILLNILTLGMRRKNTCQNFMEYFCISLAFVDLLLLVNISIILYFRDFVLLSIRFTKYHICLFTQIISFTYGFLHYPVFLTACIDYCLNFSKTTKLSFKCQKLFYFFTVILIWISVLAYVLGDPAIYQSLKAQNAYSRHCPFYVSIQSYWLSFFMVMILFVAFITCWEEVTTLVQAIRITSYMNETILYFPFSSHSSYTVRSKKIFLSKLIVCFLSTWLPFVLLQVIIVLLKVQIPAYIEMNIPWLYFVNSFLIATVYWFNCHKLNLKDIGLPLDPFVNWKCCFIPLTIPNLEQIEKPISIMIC

activation at 10 µM (348 GPCRs [1]; [10]) | activation at 10 µM (348 GPCRs [2]; [11]) | activation at 10 µM (348 GPCRs [3]; [12]) | activation at 10 µM (348 GPCRs [4]; [13]) | activation at 100 µM (348 GPCRs [5]; [14]) | activation at 10 µM (348 GPCRs [6]; [15]) | activation at 100 µM (348 GPCRs [7]; [16]) | activation at 100 µM (348 GPCRs [8]; [17]) | activation at 10 µM (348 GPCRs [9]; [18]) | activation at 100 µM (348 GPCRs [6]; GPCR GPR1 (G protein-coupled receptor 1), 100μM, read-out: % GPCR activation compared to TPA) | Compound | activation at 10 µM (348 GPCRs [1]; [19]) | activation at 10 µM (348 GPCRs [2]; [20]) | activation at 10 µM (348 GPCRs [3]; [21]) | activation at 10 µM (348 GPCRs [4]; [22]) | activation at 100 µM (348 GPCRs [5]; [23]) | activation at 10 µM (348 GPCRs [6]; [24]) | activation at 100 µM (348 GPCRs [7]; [25]) | activation at 100 µM (348 GPCRs [8]; [26]) | activation at 10 µM (348 GPCRs [9]; [27])
-3.06% | 0.113% | 1.04% | 0.154% | -0.752% | -3.33% | -0.975% | -0.932% | -3.24% | – | N#C[C@@]1(c2ccc3c(N)ncnn23)O[C@H](CO)[C@@H](O)[C@H]1O [GS441524] | – | – | – | – | – | – | – | – | –
-2.76% | -0.794% | 2.97% | 0.208% | 1.23% | – | -2.34% | -0.654% | -3.38% | -1.92% | NC(=O)c1nc(F)cnc1O [favipiravir, 6-fluoro-3-hydroxy-2-pyrazinecarboxamide] | – | – | – | – | – | – | – | – | –
-1.26% | 0.0934% | 0.598% | -0.35% | -0.0279% | -1.07% | -2.8% | -0.76% | -2.08% | – | CC(C)C(=O)OC[C@H]1O[C@@H](n2ccc(NO)nc2=O)[C@H](O)[C@@H]1O [molnupiravir] | – | – | – | – | – | – | – | – | –
– | – | – | – | – | – | – | – | – | – | CCC(CC)COC(=O)[C@H](C)N[P@](=O)(OC[C@H]1O[C@@](C#N)(c2ccc3c(N)ncnn23)[C@H](O)[C@@H]1O)Oc1ccccc1 [remdesivir] | 1.6% | 0.13% | 1.76% | 1.47% | -0.0536% | 2.72% | -1.33% | -1.37% | -2.69%
– | – | – | – | – | – | – | – | – | – | CC(C)OC(=O)[C@H](C)N[P@](=O)(OC[C@H]1O[C@@H](n2ccc(=O)[nH]c2=O)[C@](C)(F)[C@@H]1O)Oc1ccccc1 [sofosbuvir] | -0.815% | 2.1% | -0.662% | -2.66% | -12.9% | -2.4% | -1.05% | -1.2% | -2.24%
